In ChEMBL document CHEMBL1201862, “PubChem BioAssay data set” (2004):
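1) Cells in 96-well plates. 2) Compound, 48 h, 5 concentrations. 3) Linear interpolation between surrounding doses. 4) Unreached endpoint = highest concentration. The concentration for 50% growth inhibition is given as GI50.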 The source made the active and inactive calls. No stated cut-off is given here; in the data, active = GI50 up to about 1.1 µM and inactive = higher.

How the values were obtained:
Assay in all cases: growth of human tumour cells (NCI), 48 h
DLD-1 = tested on: DLD-1
HCT-15 = tested on: HCT-15
HL-60 = tested on: HL-60
HOP-62 = tested on: HOP-62
HOP-92 = tested on: HOP-92
K562 = tested on: K562
NCI-H226 = tested on: NCI-H226
OVCAR-3 = tested on: OVCAR-3
OVCAR-8 = tested on: OVCAR-8
RXF 393 = tested on: RXF 393
SF-268 = tested on: SF-268
UACC-257 = tested on: UACC-257
UACC-62 = tested on: UACC-62
UO-31 = tested on: UO-31
KM-20L2 = tested on: KM-20L2
786-0 = tested on: 786-0
ACHN = tested on: ACHN
SR = tested on: SR
DU-145 = tested on: DU-145

SMILES	GI50 (DLD-1)	GI50 (HCT-15) [µM]	GI50 (HL-60)	GI50 (HOP-62)	GI50 (HOP-92)	GI50 (K562)	GI50 (NCI-H226)	GI50 (OVCAR-3)	GI50 (OVCAR-8)	GI50 (RXF 393)	GI50 (SF-268)	GI50 (UACC-257)	GI50 (UACC-62)	GI50 (UO-31)	GI50 (KM-20L2)	GI50 (786-0)	GI50 (ACHN)	GI50 (SR)	GI50 (DU-145)
CC1(CO)C(O)CCC2(C)C1CCC1CC3CC12CCC3(O)CO (centres undefined)	> 100 µM (inactive)	> 24.8	0.433 µM (active)	1.04 µM (active)	24.8 µM (inactive)	14 µM (inactive)	21.2 µM (inactive)	> 88.3 µM (inactive)	4.84 µM (inactive)	20 µM (inactive)	8.36 µM (inactive)	> 81.3 µM (inactive)	0.789 µM (active)	25.3 µM (inactive)	–	–	–	–	–
CCOC(=O)C(C)NC(=O)N(C)C12CC3CC(CC(C3)C1)C2 (centres undefined)	50.7 µM (inactive)	187	> 96.8 µM (inactive)	316 µM (inactive)	20.7 µM (inactive)	169 µM (inactive)	233 µM (inactive)	149 µM (inactive)	265 µM (inactive)	153 µM (inactive)	319 µM (inactive)	133 µM (inactive)	175 µM (inactive)	175 µM (inactive)	199 µM (inactive)	–	–	–	–
CN(C)CCNc1c([N+](=O)[O-])cc2c3c(cccc13)C(=O)N(CCN(C)C)C2=O	1.52 µM (inactive)	1.7	1.68 µM (inactive)	2.03 µM (inactive)	0.587 µM (active)	0.556 µM (active)	> 100 µM (inactive)	1.79 µM (inactive)	1.05 µM (active)	1.42 µM (inactive)	2.2 µM (inactive)	2.08 µM (inactive)	1.75 µM (inactive)	1.58 µM (inactive)	1.21 µM (inactive)	–	–	–	–
COC(=O)Cc1cc(=O)n2c([nH]c3ccccc32)c1C#N	30.8 µM (inactive)	> 100	> 100 µM (inactive)	> 100 µM (inactive)	–	> 100 µM (inactive)	> 100 µM (inactive)	> 100 µM (inactive)	> 100 µM (inactive)	97.3 µM (inactive)	> 100 µM (inactive)	> 100 µM (inactive)	–	61 µM (inactive)	> 100 µM (inactive)	> 100 µM (inactive)	63.1 µM (inactive)	> 100 µM (inactive)	–
CC1(C)S[C@@H]2[C@H](NC(=O)CCC[C@@H](N)C(=O)O)C(=O)N2[C@H]1C(=O)O [ADICILLIN]	> 50 µM (inactive)	> 50	> 50 µM (inactive)	> 50 µM (inactive)	> 50 µM (inactive)	> 50 µM (inactive)	> 50 µM (inactive)	> 50 µM (inactive)	> 19.9 µM (inactive)	> 50 µM (inactive)	> 50 µM (inactive)	> 50 µM (inactive)	> 50 µM (inactive)	> 50 µM (inactive)	> 24.8 µM (inactive)	–	–	–	–
CC[C@]1(Cc2ccc(OC)c(OC)c2)C=[N+]([O-])O[C@H](OCc2ccccc2)[C@@H]1OC(C)=O	–	29.8	16.6 µM (inactive)	34.2 µM (inactive)	23.9 µM (inactive)	20.9 µM (inactive)	19.3 µM (inactive)	15.8 µM (inactive)	30.3 µM (inactive)	18.2 µM (inactive)	23.7 µM (inactive)	21.3 µM (inactive)	26.2 µM (inactive)	32.1 µM (inactive)	–	36.2 µM (inactive)	27.6 µM (inactive)	24.3 µM (inactive)	23.6 µM (inactive)
c1ccc2c(CN3CCN(Cc4c[nH]c5ccccc45)CC3)c[nH]c2c1	–	20	17.5 µM (inactive)	15.1 µM (inactive)	14.8 µM (inactive)	12.7 µM (inactive)	16.5 µM (inactive)	13.1 µM (inactive)	19 µM (inactive)	14.3 µM (inactive)	17.4 µM (inactive)	14.4 µM (inactive)	16.3 µM (inactive)	14.6 µM (inactive)	–	16.1 µM (inactive)	19.3 µM (inactive)	19.7 µM (inactive)	18.3 µM (inactive)
CCCC(=O)Nc1cc(C(=O)N2C[C@H]3C[C@@]34C2=CC(=O)c2[nH]cc(C)c24)n(COC)c1	–	1.31	0.045 µM (active)	0.728 µM (active)	0.245 µM (active)	0.131 µM (active)	0.475 µM (active)	0.0853 µM (active)	0.0973 µM (active)	0.164 µM (active)	0.103 µM (active)	0.171 µM (active)	0.195 µM (active)	0.843 µM (active)	–	0.149 µM (active)	0.197 µM (active)	0.00516 µM (active)	0.116 µM (active)
O=C(Oc1ccc(S(=O)(=O)F)cc1F)c1ccccc1Cl	–	37.5	35.6 µM (inactive)	34.8 µM (inactive)	20.2 µM (inactive)	42.1 µM (inactive)	31 µM (inactive)	29.9 µM (inactive)	30.8 µM (inactive)	21.3 µM (inactive)	32.5 µM (inactive)	27.6 µM (inactive)	33.6 µM (inactive)	18.5 µM (inactive)	–	33.7 µM (inactive)	56 µM (inactive)	24.5 µM (inactive)	28.1 µM (inactive)
CC(C)(C)N(Cc1ccc2c(c1)OCO2)C(=O)/C=C\[S+]([O-])c1ccccc1 (centres undefined)	–	2.65	2.11 µM (inactive)	4.88 µM (inactive)	2.29 µM (inactive)	2.9 µM (inactive)	2.74 µM (inactive)	1.99 µM (inactive)	2.03 µM (inactive)	1.91 µM (inactive)	1.23 µM (inactive)	3.48 µM (inactive)	3.37 µM (inactive)	2.19 µM (inactive)	–	2.25 µM (inactive)	3.97 µM (inactive)	1.44 µM (inactive)	2.73 µM (inactive)
CC(=O)c1sc2n(C)c(=O)c3ccccc3[n+]2c1C	–	> 100	> 100 µM (inactive)	> 100 µM (inactive)	46.5 µM (inactive)	> 100 µM (inactive)	> 100 µM (inactive)	> 100 µM (inactive)	> 100 µM (inactive)	> 100 µM (inactive)	> 100 µM (inactive)	> 100 µM (inactive)	> 100 µM (inactive)	> 100 µM (inactive)	–	> 100 µM (inactive)	> 100 µM (inactive)	> 100 µM (inactive)	> 100 µM (inactive)
COc1cc([C@@H]2c3cc4c(cc3[C@H](OC3OC5COC(C(C)C)OC5C(O)C3O)C3COC(=O)[C@@H]32)OCO4)cc(OC)c1OC (some centres undefined)	–	4.49	3.85 µM (inactive)	7.24 µM (inactive)	6.85 µM (inactive)	3.19 µM (inactive)	2.96 µM (inactive)	2.62 µM (inactive)	4.13 µM (inactive)	2.3 µM (inactive)	5.81 µM (inactive)	5.01 µM (inactive)	4.7 µM (inactive)	11.1 µM (inactive)	–	2.58 µM (inactive)	4.79 µM (inactive)	2.11 µM (inactive)	11.7 µM (inactive)
COc1ccc(N2C(=O)C3ON(C(C(N)=O)c4ccccc4)C(c4cc5ccccc5c5ccccc45)C3C2=O)cc1 (centres undefined)	–	20.4	9.27 µM (inactive)	> 50 µM (inactive)	47.1 µM (inactive)	22.9 µM (inactive)	26.3 µM (inactive)	31.7 µM (inactive)	> 50 µM (inactive)	21.8 µM (inactive)	40.9 µM (inactive)	22.7 µM (inactive)	10.6 µM (inactive)	16.7 µM (inactive)	–	32.4 µM (inactive)	> 50 µM (inactive)	16.1 µM (inactive)	> 50 µM (inactive)
O=C1C(Cl)=C(OCCCl)C(=O)c2c(O)ccc(O)c21	–	2.53	0.0617 µM (active)	16.7 µM (inactive)	1.57 µM (inactive)	0.267 µM (active)	17 µM (inactive)	2.96 µM (inactive)	13.9 µM (inactive)	6.44 µM (inactive)	5.47 µM (inactive)	2.59 µM (inactive)	3.88 µM (inactive)	5.36 µM (inactive)	–	6.58 µM (inactive)	3.16 µM (inactive)	0.113 µM (active)	17.9 µM (inactive)
O=C1OC2(c3ccc(O)cc3Oc3cc(O)ccc32)c2c1c(-c1ccccc1)c(-c1ccccc1)c(-c1ccccc1)c2-c1ccccc1	–	18.7	14.8 µM (inactive)	23.7 µM (inactive)	20 µM (inactive)	29.6 µM (inactive)	46.3 µM (inactive)	34.5 µM (inactive)	22.4 µM (inactive)	23.7 µM (inactive)	22.2 µM (inactive)	27.7 µM (inactive)	18.7 µM (inactive)	25.7 µM (inactive)	–	27.7 µM (inactive)	19.9 µM (inactive)	22.6 µM (inactive)	17.2 µM (inactive)
COC(=O)C1(CCCCCBr)CCCCCCCCCCC1=O (centres undefined)	–	38.8	30 µM (inactive)	> 100 µM (inactive)	58.7 µM (inactive)	32.9 µM (inactive)	23.6 µM (inactive)	28.4 µM (inactive)	54.2 µM (inactive)	23.4 µM (inactive)	51.6 µM (inactive)	23.7 µM (inactive)	79.6 µM (inactive)	16.7 µM (inactive)	–	30.3 µM (inactive)	40.7 µM (inactive)	33.5 µM (inactive)	88.5 µM (inactive)
N#C/C(=C/NC(=S)NCc1ccccc1)C(N)=O	–	> 100	> 100 µM (inactive)	> 100 µM (inactive)	> 100 µM (inactive)	> 100 µM (inactive)	> 100 µM (inactive)	0.063 µM (active)	> 100 µM (inactive)	> 100 µM (inactive)	> 100 µM (inactive)	> 100 µM (inactive)	> 100 µM (inactive)	50.1 µM (inactive)	–	> 100 µM (inactive)	> 100 µM (inactive)	> 100 µM (inactive)	> 100 µM (inactive)
